From publication PMC10714400, “Antimicrobial Peptide–Peptoid Hybrids with and without Membrane Disruption” (ACS Infectious Diseases, 2023)
pIC50: −log10 of the molar value. ≈ marks a conversion by molar mass, not a printed value. Where a SMILES comes first, the peptide text is derived from it. [ ]: non-standard residue; d: D form. Nleu = CC(C)CNCC(=O)O; Nlys = NCCCCNCC(=O)O

Assays:
A. baumannii ATCC19606 = test system: A. baumannii ATCC19606
How it was run: (§1)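 MTT added (20–30 min, room temperature); MIC read by eye as lowest concentration inhibiting visible growth (yellow). Polymyxin B positive control from 16 μg/mL.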

E. cloacae = details: Table S3; […] MH at pH 8.5
How it was run: (§2)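 MIC read visually after MTT staining: lowest compound concentration preventing visible growth (yellow wells). Inoculum ~5 × 10^5 CFU per well in MH broth; static incubation at 37 °C for ca. 18 h.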

E. coli W3110 = test system: E. coli W3110
How it was run: as §2

K. pneumoniae NCTC418 = test system: K. pneumoniae NCTC418
How it was run: as §1

K. pneumoniae OXA-48 = details: […] MH at pH 8.5
How it was run: as §2

P. aeruginosa PAO1 = test system: P. aeruginosa PAO1
How it was run: as §2

PA14 2P4 (pmrB) = test system: PA14 2P4 (pmrB)
How it was run: as §2

PA14 4.13 (phoQ) = test system: PA14 4.13 (phoQ)
How it was run: as §2

PA14 4.18 (pmrB) = test system: PA14 4.18 (pmrB)
How it was run: as §2

S. aureus COL (MRSA) = test system: S. aureus COL (MRSA)
How it was run: as §2

[1] = test system: ZEM-1A (clinical MDR P. aeruginosa isolate)
How it was run: as §2

[2] = test system: ZEM9A (clinical MDR P. aeruginosa isolate); details: […] MH at pH 8.5
How it was run: as §2

S. aureus Newman = details: Table S3; […] MH at pH 8.5
How it was run: as §2

HEK293 cells = experiment: Cell viability assay by Alamar blue
Method: The data are represented as the mean value ± SD, n = 3. […] (c) Vesicle leakage assay for a selection of compounds. Lipid vesicles made of EYPG or EYPC were suspended in a buffer (10 mM TRIS, 107 mM NaCl, pH 7.4). After 45 s, the indicated compound was added to reach the desired concentration. After 240 s, 30 μL of 1.2% TritonX-100 was added for full fluorescein release. […] See Supporting Information for the full curves, all of the data, and procedures.
HEK293 cells were cultured and maintained in DMEM high glucose (Dulbecco’s modified Eagle medium, Sigma Aldrich) medium supplemented with 10% FBS (Sigma Aldrich) and 1% penicillin/streptomycin. A549 cells were cultured and maintained in RPMI-1640 medium (Sigma Aldrich), supplemented with 10% FBS (Sigma Aldrich) and 1% penicillin/streptomycin. The cells were handled and subcultured according to the manufacturer instructions. Cells were incubated in a humidified incubator at 37 °C in the presence of 5% CO2.
Assays on HEK293, A549 cells were performed as described earlier.[74] […]

[3] = diluted MH ([…] MH) at pH 8.5 (Table 2 footnote b)

CC(C)C[C@H](NC(=O)CN(CC(C)C)C(=O)[C@H](CC(C)C)NC(=O)CN(CCCCN)C(=O)[C@H](CC(C)C)NC(=O)CN(CC(C)C)C(=O)[C@H](CCCCN)NC(=O)CN(CC(C)C)C(=O)[C@H](CC(C)C)NC(=O)CN(CCCCN)C(=O)[C@@H](N)CCCCN)C(N)=O [EB9, KkLlKlLkLlL] (H-K[Nlys]L[Nleu]K[Nleu]L[Nlys]L[Nleu]L-NH2)
MIC A. baumannii ATCC19606, full MH at pH 7.4 (A. baumannii ATCC19606; ATCC19606, 4 h, pH 7.4): >32 ug/mL
MIC A. baumannii ATCC19606, full MH at pH 8.5 (A. baumannii ATCC19606; ATCC19606, 4 h, pH 8.5): >32 ug/mL
MIC A. baumannii ATCC19606 […] 7.4 (A. baumannii ATCC19606; Table S2, […] MH, pH 7.4): 16 µg/mL (≈ 12.1 µM)
MIC A. baumannii ATCC19606 […] 8.5 (A. baumannii ATCC19606; Table S2, […] MH, pH 8.5): 8 µg/mL (≈ 6.05 µM)
MIC A. baumannii ATCC19606 Full MH 7.4 (A. baumannii ATCC19606; Table S2, full MH, pH 7.4): > 32 µg/mL
MIC A. baumannii ATCC19606 Full MH 8.5 (A. baumannii ATCC19606; Table S2, full MH, pH 8.5): > 32 µg/mL
MIC E. cloacae (E. cloacae): 16 µg/mL (≈ 12.1 µM)
MIC E. coli W3110, […] MH at pH 7.4 (E. coli W3110; CSV, […] MH at pH 7.4): 2 ug/mL
MIC E. coli W3110, […] MH at pH 8.5 (E. coli W3110; CSV, […] MH at pH 8.5): 2 ug/mL
MIC E. coli W3110, full MH at pH 7.4 (E. coli W3110; CSV, full MH at pH 7.4): 16 ug/mL
Antibacterial activity as a function of NaCl concentration (E. coli W3110; E. coli W3110, […] MH at pH 8.5, up to 300 mM NaCl): strongly reduced
MIC E. coli W3110 […] 7.4 (E. coli W3110; Table S2, […] MH, pH 7.4): 2 µg/mL (≈ 1.51 µM)
MIC E. coli W3110 […] 8.5 (E. coli W3110; Table S2, […] MH, pH 8.5): 2 µg/mL (≈ 1.51 µM)
MIC E. coli W3110 Full MH 7.4 (E. coli W3110; Table S2, full MH, pH 7.4): 16 µg/mL (≈ 12.1 µM)
MIC E. coli W3110 Full MH 8.5 (E. coli W3110; Table S2, full MH, pH 8.5): > 32 µg/mL
MIC K. pneumoniae NCTC418, full MH at pH 7.4 (K. pneumoniae NCTC418; NCTC418, 4 h, pH 7.4): >32 ug/mL
MIC K. pneumoniae NCTC418, full MH at pH 8.5 (K. pneumoniae NCTC418; NCTC418, 4 h, pH 8.5): >32 ug/mL
MIC K. pneumoniae NCTC418 […] 7.4 (K. pneumoniae NCTC418; Table S2, […] MH, pH 7.4): > 32 µg/mL
MIC K. pneumoniae NCTC418 […] 8.5 (K. pneumoniae NCTC418; Table S2, […] MH, pH 8.5): 16 µg/mL (≈ 12.1 µM)
MIC K. pneumoniae NCTC418 Full MH 7.4 (K. pneumoniae NCTC418; Table S2, full MH, pH 7.4): > 32 µg/mL
MIC K. pneumoniae NCTC418 Full MH 8.5 (K. pneumoniae NCTC418; Table S2, full MH, pH 8.5): > 32 µg/mL
MIC K. pneumoniae OXA-48, […] MH at pH 8.5 (K. pneumoniae OXA-48; CSV): 32 ug/mL
MIC K. pneumoniae OXA-48 (K. pneumoniae OXA-48; Table S3): 32 µg/mL (≈ 24.2 µM)
Antibacterial activity as a function of NaCl concentration (P. aeruginosa PAO1; P. aeruginosa PAO1, […] MH at pH 8.5, up to 300 mM NaCl): strongly reduced
MIC P. aeruginosa PAO1, full MH at pH 7.4 (P. aeruginosa PAO1; PAO1, 4 h, pH 7.4): 32 ug/mL
MIC P. aeruginosa PAO1 […] 7.4 (P. aeruginosa PAO1; Table S2, […] MH, pH 7.4): 4 µg/mL (≈ 3.03 µM)
MIC P. aeruginosa PAO1 […] 8.5 (P. aeruginosa PAO1; Table S2, […] MH, pH 8.5): 2 µg/mL (≈ 1.51 µM)
MIC P. aeruginosa PAO1 Full MH 7.4 (P. aeruginosa PAO1; Table S2, full MH, pH 7.4): 32 µg/mL (≈ 24.2 µM)
MIC P. aeruginosa PAO1 Full MH 8.5 (P. aeruginosa PAO1; Table S2, full MH, pH 8.5): > 32 µg/mL
MIC P. aeruginosa PA14 2P4, […] MH at pH 8.5 (PA14 2P4 (pmrB); CSV, […] MH at pH 8.5): 4 ug/mL
MIC PA14 2P4 (pmrB) (PA14 2P4 (pmrB); [3]): 4 µg/mL (≈ 3.03 µM)
MIC P. aeruginosa PA14 4.13, […] MH at pH 8.5 (PA14 4.13 (phoQ); CSV, […] MH at pH 8.5): 2 ug/mL
MIC PA14 4.13 (phoQ) (PA14 4.13 (phoQ); [3]): 2 µg/mL (≈ 1.51 µM)
MIC P. aeruginosa PA14 4.18, […] MH at pH 8.5 (PA14 4.18 (pmrB); CSV, […] MH at pH 8.5): 6 ug/mL
MIC P. aeruginosa PA14 4.18 (PA14 4.18 (pmrB); Table S3, […] MH at pH 8.5): 4 to 8 µg/mL
MIC PA14 4.18 (pmrB) (PA14 4.18 (pmrB); [3]): 4 to 8 µg/mL
MIC S. aureus COL (MRSA), full MH at pH 7.4 (S. aureus COL (MRSA); COL, 4 h, pH 7.4): >32 ug/mL
MIC S. aureus COL (MRSA), full MH at pH 8.5 (S. aureus COL (MRSA); COL, 4 h, pH 8.5): >32 ug/mL
MIC S. aureus COL (MRSA) […] 7.4 (S. aureus COL (MRSA); Table S2, […] MH, pH 7.4): 32 µg/mL (≈ 24.2 µM)
MIC S. aureus COL (MRSA) Full MH 7.4 (S. aureus COL (MRSA); Table S2, full MH, pH 7.4): > 32 µg/mL
MIC S. aureus COL (MRSA) Full MH 8.5 (S. aureus COL (MRSA); Table S2, full MH, pH 8.5): > 32 µg/mL
MIC P. aeruginosa ZEM-1A, […] MH at pH 8.5 ([1]; CSV, […] MH at pH 8.5): 3 ug/mL
MIC P. aeruginosa ZEM-1A ([1]; Table S3, […] MH at pH 8.5): 2 to 4 µg/mL
MIC ZEM-1A [1, 3]: 2 to 4 µg/mL
MIC P. aeruginosa ZEM9A, […] MH at pH 8.5 ([2]; CSV): 2 ug/mL
MIC P. aeruginosa ZEM9A ([2]; Table S3): 2 µg/mL (≈ 1.51 µM)
MIC S. aureus Newman (S. aureus Newman): 4 µg/mL (≈ 3.03 µM)
Toxicity against HEK293 cells, no effect detected up to (HEK293 cells): > 200 µM
pIC50 (HEK293 cells; read-out: Toxicity on HEK293 cells, CSV): < 3.70
